{"source": "paper PMC3199744", "about": "“Preformulation and stability in biological fluids of the retrocyclin RC-101, a potential anti-HIV topical microbicide” (AIDS Research and Therapy, 2011)", "key": {"[1]": {"test": "Thermal degradation of RC-101 solution, HPLC", "assay_type": "physicochemical", "conditions": "500 μg/mL solution, HPLC-UV 215 nm", "experimental": "(§2) For all pre-formulation studies described below, triplicate solutions of RC-101 (500 μg/mL) were prepared in either water or aqueous buffer solution. Thermal degradation studies were conducted at 25, 37, and 65°C for a minimum period of 1 week. The effect of pH on the stability of RC-101 was evaluated over the pH range from 3 to 12 using 10 mM phosphate buffer solutions, at low (50 mmol/kg) and high (500 mmol/kg) ionic strength. Oxidation of RC-101 was evaluated by exposing a solution of RC-101 to hydrogen peroxide (H2O2) at concentrations of 3.0, 0.08, and 0.002% (v/v). The high H2O2 concentration (3.0%) was selected as a forced degradation concentration. […] Protection against oxidation was investigated by the addition of antioxidants commonly used in pharmaceutical products. The antioxidants used in this study were: methionine (95.2 μg/mL or 250 μg/mL), cysteine (95.2 μg/mL), glutathione (90.9 μg/mL), vitamin E TPGS (90.9 μg/mL), ascorbic acid (1.0 mg/mL), sodium ascorbate (1.0 mg/mL), and EDTA (1.0 μg/mL).\nRC-101 concentration after exposure to preformulation conditions was analyzed by HPLC as previously described [11]. Briefly, the HPLC system (Waters Corporation, Milford, MA) was equipped with an autoinjector model 717, a quaternary pump model 600, and an ultraviolet (UV) detector model 2487 set up at 215 nm. Separation of RC-101 from degradant products was achieved using a Phenomenex Jupiter 5 μC5 300 Å (4.6 × 250 mm) column (Phenomenex, Torrance, CA) protected by a Widepore C5 (4 × 3.0 mm) guard cartridge (Phenomenex). The gradient consisted of mobile phase A (0.1% TFA in water (v/v)), and mobile phase B (0.07% TFA in acetonitrile (v/v)) pumped at a flow rate of 1.0 mL/min. […]\nHPLC data obtained from the preformulation studies were expressed as the average percentage of the peak area from time 0 ± standard deviation, n = 3. Results were analyzed by one-way analysis of variance (ANOVA) with multiple comparisons of individual time points by using post hoc Bonferroni correction to detect significant differences under different conditions. […]"}, "[2]": {"test": "Effect of pH on stability of RC-101, HPLC", "assay_type": "physicochemical", "conditions": "500 μg/mL, HPLC-UV", "experimental": "as §2\nRC-101 concentration after exposure to preformulation conditions was analyzed by HPLC as previously described [11]. Briefly, the HPLC system (Waters Corporation, Milford, MA) was equipped with an autoinjector model 717, a quaternary pump model 600, and an ultraviolet (UV) detector model 2487 set up at 215 nm. Separation of RC-101 from degradant products was achieved using a Phenomenex Jupiter 5 μC5 300 Å (4.6 × 250 mm) column (Phenomenex, Torrance, CA) protected by a Widepore C5 (4 × 3.0 mm) guard cartridge (Phenomenex). The gradient consisted of mobile phase A (0.1% TFA in water (v/v)), and mobile phase B (0.07% TFA in acetonitrile (v/v)) pumped at a flow rate of 1.0 mL/min. Forced degraded samples (oxidation, temperature, and basic and acidic hydrolysis) were used to establish that the method could separate the degradants from the main peak.\nHPLC data obtained from the preformulation studies were expressed as the average percentage of the peak area from time 0 ± standard deviation, n = 3. Results were analyzed by one-way analysis of variance (ANOVA) with multiple comparisons of individual time points by using post hoc Bonferroni correction to detect significant differences under different conditions. P-values ≤ 0.05 were considered to be statistically significant, unless specified otherwise."}, "[3]": {"test": "Circular dichroism of RC-101 at different pH", "assay_type": "physicochemical", "conditions": "500 μg/mL in buffer, pH 7 and pH 12 versus pH 3, 0.1 cm cell", "description": "(§1) Changes in the secondary structure of the protein were monitored by Circular dichroism (CD) on an AVIV Circular Dichroism spectrophotometer model 202 (AVIV Biomedical, Lakewood, NJ) equipped with a 0.1 cm path length quartz cell. RC-101 stability was also monitored by using a matrix-assisted laser desorption ionization-time of flight (MALDI-TOF) mass spectrometric (MS) on a Voyager DE-PRO mass spectrometer (Applied Biosystems, Foster City, CA). Potential for aggregation was evaluated by UV-spectroscopy using a NanoDrop ND-1000 spectrophotometer (NanoDrop Technologies Inc, Wilmington, DE)."}, "[4]": {"test": "UV spectroscopy for aggregation / ionic strength effect", "assay_type": "physicochemical", "description": "as §1"}, "[5]": {"test": "Stability of RC-101 in 3 M urea", "assay_type": "physicochemical", "experimental": "At each time point, the sample was removed from the incubation chamber and centrifuged for 10 min at 10,000 rpm, at 4 ± C to separate the supernatant from cell pellet. Supernatant (100 μL) was added to microcentrifuge filters Ultracel YM-10 Microcon MWCO 10,000 (Millipore Corporation, Bedford, MA), which were pre-washed with Milli Q water to eliminate any trace of propylene glycol from the filters. Samples were centrifuged twice for 15 min at 8,500 rpm, at 4 ± C. The filtrate was collected and frozen at -80 ± C until further analysis. A solution of 3 M urea was added to the cell pellet (1:1 w/w) obtained from the first centrifugation, to lyse the cells. This mixture was vortexed three times for 30 sec, and then centrifuged for 10 min at 10,000 rpm, at 4 ± C. The supernatant obtained from the cell lysate was then added to microcentrifuge filters Ultracel YM-10 Microcon MWCO 10,000 pre-washed with Milli Q water. Samples were centrifuged twice for 15 min at 8,500 rpm, at 4 ± C. The filtrate was collected and frozen at -80 ± C until analysis. […] Samples were thawed and added to PepCleanTM C-18 spin columns (Pierce Biotechnology Inc., Rockford, IL) for desalting, after column conditioning with acetonitrile:water (50:50) and equilibration with 0.1% trifluoroacetic acid. […]"}, "[6]": {"test": "Stability in fresh normal human vaginal fluid (HVF), detection by LC-MS/MS", "conditions": "for time RC-101 detected in HVF: LC-MS/MS; for detection of RC-101 by LC-MS/MS: nanoLC-SRM MS, qualitative", "description": "Inclusion criteria included ages between 18 and 45 years and agreeing to be abstinent from sexual activity for 48 hours prior to fluid collection. […] After signing informed consent and confirming eligibility, subjects completed a questionnaire and were then instructed on the use of the Instead Softcup® (Instead Inc., La Jolla, CA). Instead Softcup® is a FDA approved device to hold menstrual fluid during the menstrual period in replacement of a tampon or pad. Subjects inserted the cup and waited for 30 min. After this time period, the physician removed the cup, and placed it into a 50 mL conical centrifuge tube. Vaginal fluid collected from healthy volunteer women was stored at 4°C until used, and it was used within 4 h after collection.\nThe polymeric film solution was prepared as previously described by adding Milli Q water, PVA, and hydroxypropyl methyl cellulose (HPMC). The solution was then heated at 95°C for 20 minutes for complete dissolution of the polymers. […] The plate was placed into a vacuum oven at 30 ± 2°C for 20 ± 4 h. All dried films were removed from the plates and stored at room temperature in PET/Aluminum foil pouches (Amcor Flexibles Healthcare Inc, Mundelein, IL) until further analysis. […] For analytical purposes, films were dissolved in 1 mL of Milli Q water before addition to HVF.\nThe HVF from the Instead Softcup® was removed by centrifugation of the conical tube for 10 min at 5,000 rpm. […] HVF was then removed from the cup and the pH of each HVF sample was measured with Fisher Alkacid pH filter strips (Fisher Scientific). All samples collected on a specific day were pooled to be used for the research studies. If the pH of the individual samples was higher than 5, the sample was not included in the pool but it was stored at -80°C for separate analysis. If the sample contained blood, it was immediately discarded. Samples were prepared as described in Table 1. […] Because of its high viscosity, HVF was measured by weight and not by volume. […] At each time point, the samples were centrifuged at 10,000 rpm for 10 min to separate the supernatant from the epithelial cells as described in the cell processing section. Both parts (supernatant and cells) were stored at -80 ± C until analyzed by LC-MS/MS. To evaluate the influence of freezing the fluid prior to the analysis, the last pool of HVF was divided into two samples: one used fresh (at the time of collection), and the other one stored at -80°C for a 3-month period. […] HVF samples collected with a high pH value indicative of BV were stored at -80°C as previously mentioned. After confirmation of BV on those fluid samples by Gram stain score, the fluid samples (HVF BV^+) were thawed, pooled, and processed as described in Table 1.\nAt each time point, the sample was removed from the incubation chamber and centrifuged for 10 min at 10,000 rpm, at 4 ± C to separate the supernatant from cell pellet. Supernatant (100 μL) was added to microcentrifuge filters Ultracel YM-10 Microcon MWCO 10,000 (Millipore Corporation, Bedford, MA), which were pre-washed with Milli Q water to eliminate any trace of propylene glycol from the filters. Samples were centrifuged twice for 15 min at 8,500 rpm, at 4 ± C. The filtrate was collected and frozen at -80 ± C until further analysis. A solution of 3 M urea was added to the cell pellet (1:1 w/w) obtained from the first centrifugation, to lyse the cells. This mixture was vortexed three times for 30 sec, and then centrifuged for 10 min at 10,000 rpm, at 4 ± C. The supernatant obtained from the cell lysate was then added to microcentrifuge filters Ultracel YM-10 Microcon MWCO 10,000 pre-washed with Milli Q water. Samples were centrifuged twice for 15 min at 8,500 rpm, at 4 ± C. The filtrate was collected and frozen at -80 ± C until analysis."}, "HIV-1": {"tested_on": "HIV-1", "conditions": "RC-101 at pH 7, data not shown"}, "[7]": {"tested_on": "X4 and R5 strains of HIV-1", "conditions": "cited from earlier work", "source_text": "Defensins are cysteine-rich, cationic antimicrobial peptides expressed by the leucocytes and epithelial cells of mammals. […] Retrocyclins (θ-Defensin) are the evolutionary descendants of α-defensin genes. Retrocyclins are circular 18-residue, tetracyclic peptides with three cysteine disulfide bonds. RC-101 ([…]), a cationic retrocyclin analog synthesized by solid phase peptide synthesis, has shown activity against X4 and R5 strains of HIV-1 in vitro [4]. The mechanism occur ..."}}}
{"sequence": "GICRCICGKGICRCICGR (bicyclic or more) [RC-101, cationic retrocyclin analog; circular 18-residue tetracyclic peptide with three cysteine disulfide bonds]", "values": [{"measurement": "change in amount of RC-101 on storage (HPLC)", "setting": "[1]; 25 °C, 13 days, % peak area of time 0, n = 3, p > 0.5", "value": "no statistically significance difference"}, {"measurement": "change in amount of RC-101 on storage (HPLC)", "setting": "[1]; 37 °C, 13 days, % peak area of time 0, n = 3, p > 0.5", "value": "no statistically significance difference"}, {"measurement": "change in amount of RC-101 on storage (HPLC)", "setting": "[1]; 65 °C, 168 h, compared with 25 °C, n = 3, p < 0.04", "value": "significant decrease"}, {"measurement": "change in RC-101 concentration over time (HPLC)", "setting": "[2]; pH 3, 10 mM phosphate buffer, 10 days, n = 3, p > 0.83", "value": "no statistically significant decrease"}, {"measurement": "change in RC-101 concentration over time (HPLC)", "setting": "[2]; pH 4, 10 mM phosphate buffer, 10 days, n = 3, p > 0.83", "value": "no statistically significant decrease"}, {"measurement": "change in RC-101 concentration over time (HPLC)", "setting": "[2]; pH 7, 10 mM phosphate buffer, 10 days, n = 3, p > 0.83", "value": "no statistically significant decrease"}, {"measurement": "change in RC-101 concentration over time (HPLC)", "setting": "[2]; pH 12, 10 mM phosphate buffer, first 2 h, n = 3", "value": "significant decrease"}, {"measurement": "CD spectrum: peak shift and loss of absorbance compared to pH 3", "setting": "[3]", "value": "change in folding"}, {"measurement": "aggregation (increase in UV absorbance 300 to 600 nm)", "setting": "[4]; 500 μg/mL, phosphate buffer pH 12, UV scan (data not shown)", "value": "presence of aggregates"}, {"measurement": "stability profile with high ionic strength buffers", "setting": "[4]; UV spectroscopy, pH 4 and 7, high ionic strength (500 mmol/kg) phosphate buffers", "value": "did not show any significant differences"}, {"measurement": "time stable in 3 M urea", "setting": "[5]", "value": "at least 24 h"}, {"measurement": "time RC-101 detected in HVF", "setting": "[6]; another (one) pool of normal HVF, 37°C", "value": "up to 72 h"}, {"measurement": "detection of RC-101 by LC-MS/MS", "setting": "[6]; fresh pooled normal HVF 100 mg + 100 μL (100 μg/mL), 1:1, 37°C, 0 h", "value": "+"}, {"measurement": "detection of RC-101 by LC-MS/MS", "setting": "[6]; fresh pooled normal HVF 1:1, 37°C, 2 h", "value": "+"}, {"measurement": "detection of RC-101 by LC-MS/MS", "setting": "[6]; fresh pooled normal HVF 1:1, 37°C, 6 h", "value": "+"}, {"measurement": "detection of RC-101 by LC-MS/MS", "setting": "[6]; fresh pooled normal HVF 1:1, 37°C, 12 h", "value": "+"}, {"measurement": "detection of RC-101 by LC-MS/MS", "setting": "[6]; fresh pooled normal HVF 1:1, 37°C, 24 h", "value": "+"}, {"measurement": "detection of RC-101 by LC-MS/MS", "setting": "[6]; fresh pooled normal HVF 1:1, 37°C, 48 h", "value": "+"}, {"measurement": "detection of RC-101 by LC-MS/MS", "setting": "[6]; fresh pooled normal HVF 1:1, 37°C, 72 h, only one pool analyzed", "value": "+"}, {"measurement": "time RC-101 detected after exposure to HVF", "setting": "[6]; normal HVF, fresh, undiluted, pooled, 1:1 with RC-101 100 μg/mL, 37°C, LC-MS/MS (SRM), not quantitative, overall of 3 pools", "value": "at least 48 h"}, {"measurement": "time RC-101 detected in HVF", "setting": "[6]; two pools of normal HVF, 37°C", "value": 48, "unit": "h"}, {"measurement": "effect of the folding change at pH 7 on bioactivity against HIV-1", "setting": "HIV-1", "value": "did not affect bioactivity"}, {"measurement": "activity against X4 and R5 strains of HIV-1 in vitro", "setting": "[7]", "value": "activity"}]}
